Experimental findings from article PMC10507085, “Pharmacological inhibition of TBK1/IKKε blunts immunopathology in a murine model of SARS-CoV-2 infection” (Nature Communications, 2023) are described below.

Targets include LYN (Homo sapiens, UniProt P07948); MAP3K13 (Homo sapiens, UniProt O43283); MAP2K7 (Homo sapiens, UniProt O14733); TBK1 (Homo sapiens, UniProt Q9UHD2); TSSK1B (Homo sapiens, UniProt Q9BXA7); TNIK (Homo sapiens, UniProt Q9UKE5); NUAK1 (Homo sapiens, UniProt O60285); PLK4 (Homo sapiens, UniProt O00444); MYO3B (Homo sapiens, UniProt Q8WXR4); TNK2 (Homo sapiens, UniProt Q07912); NEK5 (Homo sapiens, UniProt Q6P3R8); EPHA2 (Homo sapiens, UniProt P29317); KIT (Homo sapiens, UniProt P10721); MAPK8 (Homo sapiens, UniProt P45983); FES (Homo sapiens, UniProt P07332); STK17B (Homo sapiens, UniProt O94768); CAMK1 (Homo sapiens, UniProt Q14012).

What all share (assay): biochemical
Set-up in all cases: KINOMEscan competition binding, DNA-tagged kinase against immobilised ligand, qPCR read-out
What all share (settings): read-out: Percent Control
In general terms: In qPCR the cycle at which signal appears reflects the starting amount.

The target of assay [1] is T1, RPS6KA4(Kin.Dom.1-N-terminal) (Homo sapiens, UniProt O75676).
T1 construct: Kin.Dom.1 N-terminal
T1 sequence (O75676 whole entry): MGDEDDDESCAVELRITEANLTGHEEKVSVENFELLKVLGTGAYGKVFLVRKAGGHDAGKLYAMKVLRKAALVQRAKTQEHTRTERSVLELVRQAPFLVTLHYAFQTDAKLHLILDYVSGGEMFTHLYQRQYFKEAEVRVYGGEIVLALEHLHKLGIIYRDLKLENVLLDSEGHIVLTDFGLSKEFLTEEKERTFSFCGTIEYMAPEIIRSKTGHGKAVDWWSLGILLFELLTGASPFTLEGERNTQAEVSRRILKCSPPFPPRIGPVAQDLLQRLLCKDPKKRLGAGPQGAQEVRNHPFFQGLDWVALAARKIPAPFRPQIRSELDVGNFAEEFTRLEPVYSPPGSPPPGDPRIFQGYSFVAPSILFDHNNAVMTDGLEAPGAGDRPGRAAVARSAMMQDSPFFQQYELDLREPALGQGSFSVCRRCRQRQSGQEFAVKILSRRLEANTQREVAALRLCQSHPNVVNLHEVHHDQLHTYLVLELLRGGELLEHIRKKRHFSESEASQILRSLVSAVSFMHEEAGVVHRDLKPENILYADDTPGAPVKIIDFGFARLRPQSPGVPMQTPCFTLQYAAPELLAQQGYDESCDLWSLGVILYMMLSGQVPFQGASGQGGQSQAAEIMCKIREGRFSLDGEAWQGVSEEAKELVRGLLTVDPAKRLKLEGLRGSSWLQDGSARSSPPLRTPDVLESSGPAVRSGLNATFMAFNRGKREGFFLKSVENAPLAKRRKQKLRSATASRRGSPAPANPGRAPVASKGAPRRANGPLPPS

Assay [2] addresses T2, JAK3(JH1domain-catalytic) (Homo sapiens, UniProt P52333).
T2 construct: JH1 domain catalytic

A further assay has as its target T3, CDC2L2 (Homo sapiens, UniProt Q9UQ88).
T3 construct: gene CDK11A

Chain of STK17B (O94768 whole entry): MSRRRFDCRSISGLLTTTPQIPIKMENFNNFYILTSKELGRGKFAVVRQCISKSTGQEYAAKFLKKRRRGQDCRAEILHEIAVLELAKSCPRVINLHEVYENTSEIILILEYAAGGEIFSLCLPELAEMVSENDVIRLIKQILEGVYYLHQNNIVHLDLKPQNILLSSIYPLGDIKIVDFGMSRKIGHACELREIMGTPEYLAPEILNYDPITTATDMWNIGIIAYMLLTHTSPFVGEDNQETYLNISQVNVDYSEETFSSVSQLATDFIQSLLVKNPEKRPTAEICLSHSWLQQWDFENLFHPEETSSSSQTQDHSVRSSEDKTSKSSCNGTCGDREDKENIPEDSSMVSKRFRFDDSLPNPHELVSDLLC
Chain of EPHA2 (P29317 whole entry): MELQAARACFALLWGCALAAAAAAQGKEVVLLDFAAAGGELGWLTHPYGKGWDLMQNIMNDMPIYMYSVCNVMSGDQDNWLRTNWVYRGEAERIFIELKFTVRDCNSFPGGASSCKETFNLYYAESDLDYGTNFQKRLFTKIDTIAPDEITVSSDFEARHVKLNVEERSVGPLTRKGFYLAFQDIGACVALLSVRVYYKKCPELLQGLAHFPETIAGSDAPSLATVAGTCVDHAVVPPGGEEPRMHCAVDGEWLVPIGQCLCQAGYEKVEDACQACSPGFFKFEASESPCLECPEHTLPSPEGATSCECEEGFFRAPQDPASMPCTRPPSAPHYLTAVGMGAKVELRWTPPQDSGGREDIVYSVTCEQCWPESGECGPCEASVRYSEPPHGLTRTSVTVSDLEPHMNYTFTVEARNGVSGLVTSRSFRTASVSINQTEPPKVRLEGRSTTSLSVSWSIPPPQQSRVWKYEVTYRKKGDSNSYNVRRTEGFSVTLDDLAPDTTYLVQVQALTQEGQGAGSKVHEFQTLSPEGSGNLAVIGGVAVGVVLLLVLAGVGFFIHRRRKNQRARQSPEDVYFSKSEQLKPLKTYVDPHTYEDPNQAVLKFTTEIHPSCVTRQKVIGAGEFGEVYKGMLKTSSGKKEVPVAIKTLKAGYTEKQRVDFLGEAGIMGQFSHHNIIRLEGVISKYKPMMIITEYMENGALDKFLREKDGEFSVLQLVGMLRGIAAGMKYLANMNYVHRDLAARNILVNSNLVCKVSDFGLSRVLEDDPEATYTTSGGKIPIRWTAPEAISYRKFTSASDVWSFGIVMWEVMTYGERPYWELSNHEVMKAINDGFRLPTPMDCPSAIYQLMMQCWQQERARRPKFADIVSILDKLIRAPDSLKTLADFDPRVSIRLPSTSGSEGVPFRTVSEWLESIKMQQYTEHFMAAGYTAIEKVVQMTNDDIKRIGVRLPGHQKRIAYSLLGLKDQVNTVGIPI
Chain of TSSK1B (Q9BXA7 whole entry): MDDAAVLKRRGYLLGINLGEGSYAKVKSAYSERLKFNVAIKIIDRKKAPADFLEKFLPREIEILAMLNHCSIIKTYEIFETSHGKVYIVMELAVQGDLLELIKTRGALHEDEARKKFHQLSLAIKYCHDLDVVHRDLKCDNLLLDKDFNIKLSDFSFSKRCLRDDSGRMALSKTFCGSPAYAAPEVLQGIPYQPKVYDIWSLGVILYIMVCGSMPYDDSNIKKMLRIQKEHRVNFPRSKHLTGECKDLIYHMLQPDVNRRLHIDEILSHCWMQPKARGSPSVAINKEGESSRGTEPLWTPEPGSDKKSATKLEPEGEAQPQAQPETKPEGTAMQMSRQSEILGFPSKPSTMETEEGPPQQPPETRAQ
Chain of MYO3B (Q8WXR4 whole entry): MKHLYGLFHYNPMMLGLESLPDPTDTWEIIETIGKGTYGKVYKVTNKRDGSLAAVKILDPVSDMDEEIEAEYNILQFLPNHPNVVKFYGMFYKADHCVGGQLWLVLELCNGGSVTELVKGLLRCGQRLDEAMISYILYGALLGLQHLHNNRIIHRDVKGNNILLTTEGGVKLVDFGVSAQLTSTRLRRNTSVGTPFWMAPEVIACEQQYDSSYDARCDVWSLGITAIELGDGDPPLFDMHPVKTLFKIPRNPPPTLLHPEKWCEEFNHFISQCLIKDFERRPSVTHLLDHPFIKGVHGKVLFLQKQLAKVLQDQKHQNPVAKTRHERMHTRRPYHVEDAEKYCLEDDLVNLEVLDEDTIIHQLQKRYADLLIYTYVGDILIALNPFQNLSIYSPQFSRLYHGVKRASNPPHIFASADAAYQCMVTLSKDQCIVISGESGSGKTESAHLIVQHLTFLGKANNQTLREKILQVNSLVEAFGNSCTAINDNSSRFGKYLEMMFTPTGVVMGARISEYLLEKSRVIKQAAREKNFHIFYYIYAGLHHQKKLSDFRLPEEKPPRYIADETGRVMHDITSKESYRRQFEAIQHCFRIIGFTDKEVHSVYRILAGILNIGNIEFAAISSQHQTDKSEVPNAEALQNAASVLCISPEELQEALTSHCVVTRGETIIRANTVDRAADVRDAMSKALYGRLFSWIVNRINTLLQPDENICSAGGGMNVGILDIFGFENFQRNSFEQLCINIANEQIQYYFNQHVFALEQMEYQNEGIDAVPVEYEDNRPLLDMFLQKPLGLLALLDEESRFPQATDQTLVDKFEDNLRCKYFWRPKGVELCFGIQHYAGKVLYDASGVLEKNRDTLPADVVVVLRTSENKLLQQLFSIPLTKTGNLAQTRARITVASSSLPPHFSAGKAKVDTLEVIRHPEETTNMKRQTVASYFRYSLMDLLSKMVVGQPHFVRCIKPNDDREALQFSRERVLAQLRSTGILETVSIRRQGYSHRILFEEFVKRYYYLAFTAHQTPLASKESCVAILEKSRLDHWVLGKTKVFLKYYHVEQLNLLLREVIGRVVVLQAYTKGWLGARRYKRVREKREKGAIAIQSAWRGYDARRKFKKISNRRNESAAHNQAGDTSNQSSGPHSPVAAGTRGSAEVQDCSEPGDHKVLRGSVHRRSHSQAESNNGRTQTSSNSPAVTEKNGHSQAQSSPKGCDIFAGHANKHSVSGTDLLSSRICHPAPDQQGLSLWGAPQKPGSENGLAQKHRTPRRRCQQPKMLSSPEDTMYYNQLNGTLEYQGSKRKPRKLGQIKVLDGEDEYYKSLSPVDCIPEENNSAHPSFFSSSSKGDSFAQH
Chain of KIT (P10721 whole entry): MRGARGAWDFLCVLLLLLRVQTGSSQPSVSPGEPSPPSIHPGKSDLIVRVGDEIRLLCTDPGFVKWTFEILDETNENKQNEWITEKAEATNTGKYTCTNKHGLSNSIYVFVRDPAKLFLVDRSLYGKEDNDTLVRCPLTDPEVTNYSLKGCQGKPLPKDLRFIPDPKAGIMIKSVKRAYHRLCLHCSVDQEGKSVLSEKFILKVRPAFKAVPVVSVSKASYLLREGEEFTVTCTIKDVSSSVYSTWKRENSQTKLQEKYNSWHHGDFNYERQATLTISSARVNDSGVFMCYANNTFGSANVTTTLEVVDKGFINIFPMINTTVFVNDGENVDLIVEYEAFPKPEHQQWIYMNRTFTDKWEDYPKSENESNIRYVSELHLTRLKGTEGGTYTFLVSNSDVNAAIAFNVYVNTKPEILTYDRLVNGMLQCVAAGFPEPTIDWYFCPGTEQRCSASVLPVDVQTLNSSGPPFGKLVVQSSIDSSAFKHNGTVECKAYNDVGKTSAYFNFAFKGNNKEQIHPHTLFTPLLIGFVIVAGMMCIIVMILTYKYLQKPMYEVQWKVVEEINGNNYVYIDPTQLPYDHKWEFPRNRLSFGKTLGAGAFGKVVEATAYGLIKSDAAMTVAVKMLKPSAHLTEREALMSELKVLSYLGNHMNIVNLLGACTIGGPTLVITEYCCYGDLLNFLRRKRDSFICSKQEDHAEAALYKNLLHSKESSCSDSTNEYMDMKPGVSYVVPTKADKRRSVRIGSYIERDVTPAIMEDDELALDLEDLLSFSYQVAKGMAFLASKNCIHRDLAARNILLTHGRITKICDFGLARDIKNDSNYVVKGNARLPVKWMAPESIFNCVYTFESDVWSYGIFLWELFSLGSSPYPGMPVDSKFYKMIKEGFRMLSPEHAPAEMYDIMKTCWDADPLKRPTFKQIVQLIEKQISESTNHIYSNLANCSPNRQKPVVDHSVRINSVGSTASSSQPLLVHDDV

As to `Oc1ccc(C2=Cc3ccc(O)cc3OC2)cc1` [compound 1, idronoxil], the remaining binding at 10 µM is 71% at LYN; 84% at MAP3K13; 91% at MAP2K7; 83% in assay [1]; 99% at TBK1; 87% on TSSK1B. Further, the remaining binding at 10 µM in assay [2] was 52%; on TNIK, 56%; on NUAK1, 97%; on PLK4, 88%; at MYO3B, 100%; at TNK2, 91%. Further, the remaining binding at 10 µM at NEK5 was found to be 89%; on EPHA2, 78%; at KIT, 19%; at CDC2L2 it was 69%; at MAPK8, 68%; at FES, 95%. Also, the remaining binding at 10 µM on STK17B turned out to be 40%; at CAMK1 it was 96%.
